According to patent publication US20240353769A1, “ELECTROPHOTOGRAPHIC PHOTORECEPTOR, COATING LIQUID FOR FORMING ELECTROPHOTOGRAPHIC PHOTORECEPTOR PROTECTIVE LAYER, COMPOUND, ELECTROPHOTOGRAPHIC PHOTORECEPTOR CARTRIDGE, AND IMAGE FORMATION DEVICE” (MITSUBISHI CHEMICAL CORPORATION, priority 2021, published 2024):

Test: Evaluation of solubility in organic solvent (visual)
Type: physicochemical
Parameters: key: A (good): The compound dissolved completely at room temperature.; B (poor): Undissolved compound was observed at room temperature
Details: eight parts by mass in 100 parts by mass mixed solvent (19 mass % THF, 38 mass % TL, 43 mass % 2-PrOH), 25° C., stirred 10 minutes
Procedure: To 100 parts by mass of a mixed solvent of tetrahydrofuran (appropriately abbreviated to as THF below), toluene (appropriately abbreviated to as TL below) and 2-propanol (appropriately abbreviated to as 2-PrOH below) (19 mass % THF, 38 mass % TL and 43 mass % 2-PrOH, 25° C.), eight parts by mass of the compound 1 or 2 or the comparative compound 1 was added, and without heating or cooling, the mixtures were stirred with a rotor for 10 minutes. Then, the dissolution states were observed visually, and the solubility was evaluated by the following criteria.

Solubility | Compound
B | CCC(C)(C)C1=C/C(=C2/C=C(C(C)(C)CC)C(=O)c3ccccc32)c2ccccc2C1=O [Comparative Compound 1, reference compound]
A | C=C(C)C(=O)OCC(COC(=O)C(=C)C)OC(=O)CCC(=O)Oc1cccc(C(C)C2=C/C(=C3/C=C(C(C)c4cccc(OC(=O)CCC(=O)OC(COC(=O)C(=C)C)COC(=O)C(=C)C)c4)C(=O)c4ccccc43)c3ccccc3C2=O)c1 (stereo not drawn) [Compound 2]
A | C=CC(=O)OCCOC(=O)CCC(=O)Oc1cccc(C(C)C2=C/C(=C3/C=C(C(C)c4cccc(OC(=O)CCC(=O)OCCOC(=O)C=C)c4)C(=O)c4ccccc43)c3ccccc3C2=O)c1 (stereo not drawn) [Compound 1]
